Results as given in patent US8637045B2, “Therapy for lysosomal enzyme deficiencies” (University of Massachusetts, priority 2004, dated 2014).

What was measured:
S. aureus = S. aureus killing by J774 murine macrophages loaded with YGP particles; type: cell-based
Procedure: One ml of murine macrophages, J774 (5×10^5/ml) was combined with YGP, YGP:alginate—tet or tetracycline of various concentration as summarized in Table 6, above.
The J774 cells were cultured overnight in medium (DMEM containing 10% fetal calf serum without antibiotics or glutamine). […] The microbial killing assay was set up in 96 well plates. The cultures were diluted in medium and incubated overnight to allow for metabolism and release of tet from phagocytosed YGP:alginate—tet particles. Bacterial challenge was added as indicated in Table 7 and the cultures were incubated 2 hours at 37 degrees Celsius in a CO2 incubator to permit S. aureus phagocytosis and killing by the J774 murine macrophages. After this incubation, 200 μl LB Broth (Luria-Bertani Broth: 1.0% tryptone, 0.5% yeast extract, 1.0% NaCl) was added to each culture to lyze the macrophages. Cultures were incubated at 37 degrees Celsius in an incubator to permit outgrowth of surviving S. aureus. Growth was monitored by change in pH as indicated by phenol red. The effects of YGP, YGP:alginate—tet or tetracycline were compared.

β-glucosidase = target: T1, β-glucosidase (Mus musculus, UniProt P17439); test: Gaucher mouse model produced with conduritol beta-epoxide; type: in vivo, mice
T1 construct: from tissue; host or cells: tissues of C57/Bl mice dosed in vivo with CBE
T1 sequence (P17439 20-515): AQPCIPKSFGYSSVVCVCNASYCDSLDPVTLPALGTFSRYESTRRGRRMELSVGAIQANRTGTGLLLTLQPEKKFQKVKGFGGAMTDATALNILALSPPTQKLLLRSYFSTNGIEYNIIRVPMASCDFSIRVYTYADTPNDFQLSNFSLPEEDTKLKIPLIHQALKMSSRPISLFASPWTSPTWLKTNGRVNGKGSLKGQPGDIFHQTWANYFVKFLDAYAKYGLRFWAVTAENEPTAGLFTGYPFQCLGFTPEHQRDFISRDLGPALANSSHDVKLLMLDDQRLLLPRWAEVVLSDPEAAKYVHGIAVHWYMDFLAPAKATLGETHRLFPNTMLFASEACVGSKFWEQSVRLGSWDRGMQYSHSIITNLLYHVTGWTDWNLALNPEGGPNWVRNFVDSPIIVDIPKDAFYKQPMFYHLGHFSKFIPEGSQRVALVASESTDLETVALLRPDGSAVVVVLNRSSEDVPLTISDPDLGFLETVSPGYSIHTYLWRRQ
Procedure: Two mouse models of Gaucher disease were used. The first Gaucher mouse was produced by injecting C57/Bl mice with 100 mg/kg of conduritol beta-epoxide, (CBE, 7-oxabicyclo[4.1.0]heptane-2,3,4,5-tetrol), intraperitoneally daily for 3 weeks. Three weeks of treatment of 3 month old C57/Bl mice with CBE produced an approximately 50% and 500% increase in the amount of glucosylceramide in systemic tissues and brain, respectively. […] No weight or behavioral differences occurred in 3 month old treated mice. […] Expressed as percentages of total body weight there was no difference for brain, liver, and kidney, but the spleen weight was 60% of control. […] There was a 50% and 300% increase in glucocerebroside in liver tissue and brain, respectively.

[1] = 3 month old C57/Bl mice, 100 mg/kg intraperitoneally daily for 3 weeks
[2] = 1 day old infant C57/Bl mice, 100 mg/kg IP daily for 3 weeks

Structure (SMILES): CN(C)[C@@H]1C(O)=C(C(N)=O)C(=O)[C@@]2(O)C(O)=C3C(=O)c4c(O)cccc4[C@@](C)(O)[C@H]3C[C@@H]12 [tet, tetracycline]
- S. aureus Killed (S. aureus; with J774, 1.25 μg/ml): 1 × 10^6
- Fold Increased Killing (S. aureus; with J774, 2.5 μg/ml): 3.3
- S. aureus Killed (S. aureus; with J774, 2.5 μg/ml): 1 × 10^7
- S. aureus Killed (S. aureus; with J774, 5 μg/ml): >1 × 10^8
- S. aureus Killed (S. aureus; with J774, 10 μg/ml): >1 × 10^8
- Fold Increased Killing (S. aureus; without J774, 1.25 μg/ml): 1
- S. aureus Killed (S. aureus; without J774, 1.25 μg/ml): 1 × 10^6
- S. aureus Killed (S. aureus; without J774, 2.5 μg/ml): 3.3 × 10^6
- S. aureus Killed (S. aureus; without J774, 5 μg/ml): >1 × 10^8
- S. aureus Killed (S. aureus; without J774, 10 μg/ml): >1 × 10^8

Structure (SMILES): OC1C(O)C(O)C2OC2C1O (stereo not shown) [CBE, 7-oxabicyclo[4.1.0]heptane-2,3,4,5-tetrol]
- increase in the amount of glucosylceramide in brain (β-glucosidase; [1]): ~500%
- increase in the amount of glucosylceramide in systemic tissues (β-glucosidase; [1]): approximately 50%
- increase in glucocerebroside in brain (β-glucosidase; [2]): 300%
- increase in glucocerebroside in liver tissue (β-glucosidase; [2]): 50%
- spleen weight (as percentage of total body weight) (β-glucosidase; [2]): 60 % of control
- β-glucosidase activity (β-glucosidase; C57/Bl mice, 100 mg/kg intraperitoneally daily for 3 weeks): drastic reduction
